Source: US10328022B2, “Formulations and methods for vaginal delivery of antiprogestins” (REPROS THERAPEUTICS INC., priority 2012, dated 2019)

Experiments:
[1] = system: New Zealand White rabbits; test: Cumulative vaginal mucous membrane irritancy, 10 daily intravaginal doses; format: in vivo, rabbit
Protocol: Pullulan capsules (Capsugel NPcaps®, size 0) comprising CDB-4124 were administered once daily for 10 consecutive days intravaginally to 10 healthy virgin female New Zealand White rabbits in order to determine the cumulative vaginal mucous membrane irritancy potential and to obtain plasma samples for pharmacokinetic analysis. Five rabbits were assigned to each of two groups, the first dosed with vehicle control (pullulan capsules with 0.5 ml PEG 1000 fill) introduced into the upper vaginal vault of each rabbit using a syringe applicator (Group 1), the second with CDB-4124 (pullulan capsules with 12 mg CDB-4124 in 0.5 ml PEG 1000)(Group 2). The external vaginal mucosa of each animal was examined for erythema, edema and discharge prior to the initial dose, immediately prior to each treatment and prior to sacrifice. All animals were examined for gross pathology.

[2] = Pharmacokinetics of vaginal pullulan capsules with 12 mg CDB-4124 in women; format: in vivo, human
Protocol: (§1) Capsugel NPcaps® were filled with the excipient fill formulations described above with 12 mg CDB-4124 (telapristone acetate) and administered vaginally to human females with uterine fibroids once per day for a period of 2 weeks to determine the length of time required to reach steady state and overall systemic exposure of the parent compound (CDB-4124) and the primary metabolite (CDB-4453). The capsules were administered using a commercially available vaginal applicator modified by reversing the insert (see FIG. 5). The unmodified applicator comprises a barrel and plunger with the barrel having a relatively wide opening on one end and a relatively narrow opening on the other end. The applicator is designed such that the drug is placed in the end with the larger diameter opening (entrance end), the applicator is inserted into the vagina and the plunger is used to push the drug out the barrel and into the vagina. For insertion of the filled NPcaps, the shell end of the capsule (having a […] diameter) was placed into the narrow opening in the barrel, leaving the cap exposed. […] Pharmacokinetic data was then obtained from patients.

[3] = system: human females with uterine fibroids; test: Vaginal administration of pullulan capsules with 12 mg CDB-4124: menses and fibroid symptoms; format: in vivo
Protocol: as §1
(§2) In a previous oral study, doses of 1, 3, 6, 9 and 12 mg of CDB-4124 were administered for a period of 10 weeks. […] Cessation of menses directly correlates to efficacy of an oral dose in both uterine fibroids and endometriosis. […] Given the overall low exposure of the 12 mg dose, in those women that continued to menstruate, further improvements in reduction of symptoms are expected with longer exposure to the drug. In efficacy studies in which CDB-4124 was administered orally, women experienced a nearly 50% reduction in mean fibroid size at a 25 mg dose. When those women were then escalated to a 50 mg oral dose for an additional four months, fibroid size was reduced to approximately 25% of the initial volume. Based on the assessment of fibroid symptoms as scored by UFSQOL, women on oral CDB-4124 were, in general, symptom free.

[4] = system: human females with uterine fibroids; test: Previous oral study of CDB-4124, 1, 3, 6, 9 and 12 mg for 10 weeks; format: in vivo
Protocol: as §2

uterine fibroids = test: Oral efficacy studies of CDB-4124, 25 mg then 50 mg; format: in vivo, human
Protocol: as §2

[5] = 12 mg intravaginally once daily for 10 days
[6] = 12 mg vaginal, pair-wise comparison of 6 women

COCC(=O)[C@@]1(OC(C)=O)CC[C@H]2[C@@H]3CCC4=CC(=O)CCC4=C3[C@@H](c3ccc(N(C)C)cc3)C[C@@]21C [CDB-4124, 21-methoxy-17α-acetoxy-11β-(4 N,N-dimethylaminophenyl)-19-norpregna-4,9-diene-3,20-dione]
External vaginal mucosa: erythema, edema ([1]; 12 mg CDB-4124 in pullulan capsule intravaginally once daily for 10 days): ⅖ rabbits showed very slight erythema and/or edema on 4 occasions
Gross findings in ovaries, uterus, three sections of the vagina [1, 5]: No gross findings
Histopathological findings [1, 5]: nor were any histopathological findings observed
Irritation index [1, 5]: none
Drug peak after steady state ([2]; 12 mg vaginal once per day, women): no obvious drug peak
Systemic exposure relative to an equivalent oral dose, based on AUC ([2]; 12 mg vaginal versus 12 mg oral, women): about ⅙
Cmax compared with oral doses ([2]; 12 mg vaginal versus 1, 3, 6, 9, 12 mg oral, women): lower than any of the oral doses
Release profile from pullulan capsules ([2]; 12 mg vaginal, steady state, 24 hour period, women): continuous release of active agents at a substantially constant rate
Exposure compared with the 1 mg oral dose ([2]; 12 mg vaginal, women): only a fraction of the exposure of the ineffective 1 mg oral dose
Maximum exposure relative to the 50 mg oral dose ([2]; 12 mg vaginal, women): 1/100
Time to steady state concentration ([2]; women with uterine fibroids, 12 mg vaginal pullulan capsule once per day): one
Cessation of menses, number of women ([3]; 12 mg vaginal once per day, 6 women): 3 women
Fibroid related condition ([3]; 12 mg vaginal, after only 4 weeks of treatment): significant improvements
Reduction in menstrual bleeding, Pictorial Blood Loss Assessment Chart (PBAC) [3, 6]: Statistical significance (p<0.05)
Reduction in overall uterine fibroid symptoms, Uterine Fibroid Symptom Quality of Life Survey (UFSQOL) [3, 6]: Statistical significance (p<0.05)
Efficacy of the 1 mg oral dose ([4]; oral 1 mg): ineffective
Tolerability ([4]; oral 1, 3, 6, 9 and 12 mg for 10 weeks): all doses were well tolerated
Lowest dose inducing reliable cessation of menses ([4]; oral, 10 weeks): 3 mg
Fibroid size as share of the initial volume (uterine fibroids; escalated to 50 mg oral dose for an additional four months): approximately 25%
Reduction in mean fibroid size (uterine fibroids; oral 25 mg dose): ~50%
Fibroid symptoms as scored by UFSQOL (uterine fibroids; oral CDB-4124): symptom free
